In data set [1] the test system is Calu-1. Briefly: Cytotoxicity against Homo sapiens (human) Calu1 cells at 500 nM after 48 hr by propidium iodide-based fluorometric assay. It counts as functional. The note with it: Calu-1, 48 h, read-out: GI.
Data set [2] is described as follows: Cytotoxicity against Homo sapiens (human) H460 cells at 500 nM after 48 hr by propidium iodide-based fluorometric assay. It counts as functional. The note with it: NCI-H460, 48 h, read-out: GI.
The subject of data set [3] is HCT-116. Briefly: Cytotoxicity against Homo sapiens (human) HCT116 cells at 500 nM after 48 hr by propidium iodide-based fluorometric assay. The following applies: HCT-116, 48 h, read-out: GI. It counts as functional.
For data set [4], the system named is PANC-1. Briefly: Cytotoxicity against Homo sapiens (human) PANC1 cells at 500 nM after 48 hr by propidium iodide-based fluorometric assay. It counts as functional. The note with it: PANC-1, 48 h, read-out: GI.
The subject of data set [5] is ACHN. The data set is described as follows: Cytotoxicity against Homo sapiens (human) ACHN cells at 500 nM after 48 hr by propidium iodide-based fluorometric assay. The following applies: read-out: GI. It counts as functional.
Data set [6] relates to ACHN. The data set is described as follows: Cytotoxicity against Homo sapiens (human) ACHN cells at 10 uM after 48 hr by propidium iodide-based fluorometric assay. It counts as functional. The following applies: read-out: GI.
The test system of data set [7] is Calu-1. The data set is described as follows: Cytotoxicity against Homo sapiens (human) Calu1 cells at 10 uM after 48 hr by propidium iodide-based fluorometric assay. It counts as functional. The note with it: Calu-1, 48 h, read-out: GI.
A short description of data set [8]: Cytotoxicity against Homo sapiens (human) H460 cells at 10 uM after 48 hr by propidium iodide-based fluorometric assay. It counts as functional. The note with it: NCI-H460, 48 h, read-out: GI.
For data set [9], the target named is T1, Prostaglandin G/H synthase 1 (Ovis aries) (UniProt P05979).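 Also: colorimetric read-out, measured after 5 min.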
T1 sequence (whole entry): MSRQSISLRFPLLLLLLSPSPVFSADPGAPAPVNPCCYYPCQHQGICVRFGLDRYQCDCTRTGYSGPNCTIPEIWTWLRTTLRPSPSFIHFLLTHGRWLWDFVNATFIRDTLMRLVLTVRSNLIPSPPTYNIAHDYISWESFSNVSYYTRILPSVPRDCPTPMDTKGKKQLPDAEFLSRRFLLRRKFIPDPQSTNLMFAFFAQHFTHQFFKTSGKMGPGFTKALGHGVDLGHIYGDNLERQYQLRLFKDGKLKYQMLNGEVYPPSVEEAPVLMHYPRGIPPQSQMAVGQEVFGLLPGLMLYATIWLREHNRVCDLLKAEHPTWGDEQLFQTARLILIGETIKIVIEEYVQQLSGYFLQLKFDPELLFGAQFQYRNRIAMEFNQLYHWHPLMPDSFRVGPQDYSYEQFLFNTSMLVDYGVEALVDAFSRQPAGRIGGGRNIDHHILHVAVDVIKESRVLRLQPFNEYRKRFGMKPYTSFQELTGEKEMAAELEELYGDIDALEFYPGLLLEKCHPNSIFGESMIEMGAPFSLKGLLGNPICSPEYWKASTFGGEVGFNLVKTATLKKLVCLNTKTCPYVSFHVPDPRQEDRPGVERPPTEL
The following applies: at 1 µM.
Description: Inhibition of Ovis aries (sheep) COX1 at 1 uM after 5 min by colorimetric analysis

The target of the next data set is Trypsin (Homo sapiens) (UniProt P07477+P07478+P35030). Briefly: Inhibition of trypsin (unknown origin) using bovine serum albumin as substrate at 1 uM incubated for 20 min prior to substrate addition measured after 25 min by Lowry method. It counts as protein assay.
In data set [10] the target is T2, Prostaglandin G/H synthase 2 (Ovis aries) (UniProt P79208).
T2 sequence (whole entry): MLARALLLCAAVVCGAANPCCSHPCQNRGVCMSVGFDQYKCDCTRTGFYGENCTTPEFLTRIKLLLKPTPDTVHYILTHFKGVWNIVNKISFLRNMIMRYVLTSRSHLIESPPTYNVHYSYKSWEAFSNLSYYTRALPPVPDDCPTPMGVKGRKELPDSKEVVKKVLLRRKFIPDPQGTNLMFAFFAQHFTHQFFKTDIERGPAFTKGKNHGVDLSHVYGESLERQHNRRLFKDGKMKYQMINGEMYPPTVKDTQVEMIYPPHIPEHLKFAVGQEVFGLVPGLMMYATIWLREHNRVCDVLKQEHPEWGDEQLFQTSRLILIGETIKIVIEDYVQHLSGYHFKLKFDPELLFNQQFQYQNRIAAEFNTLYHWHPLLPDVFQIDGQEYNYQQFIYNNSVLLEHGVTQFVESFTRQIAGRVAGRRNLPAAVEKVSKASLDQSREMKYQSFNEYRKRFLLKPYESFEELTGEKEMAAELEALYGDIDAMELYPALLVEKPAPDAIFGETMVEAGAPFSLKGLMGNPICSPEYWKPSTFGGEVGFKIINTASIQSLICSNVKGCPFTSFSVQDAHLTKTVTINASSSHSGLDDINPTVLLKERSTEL
Briefly: Inhibition of Ovis aries (sheep) COX2 at 1 uM after 5 min by colorimetric analysis.

The subject of data set [11] is PANC-1. Briefly: Cytotoxicity against Homo sapiens (human) PANC1 cells at 10 uM after 48 hr by propidium iodide-based fluorometric assay. It counts as functional. The following applies: PANC-1, 48 h, read-out: GI.
The nature of data set [12]: Antioxidant activity assessed as reduction of potassium ferricynide at 1 uM after 10 min by spectrophotometric analysis. It counts as functional. Also on record: scale not given: the % may be the effect or the level left.
Data set [13] concerns THP-1. The data set is described as follows: Anti-inflammatory activity in Homo sapiens (human) THP1 cells assessed as inhibition of LPS-induced TNFalpha production at 10 uM incubated for 30 min prior to LPS-challenge measured after 24 hr by ELISA. It counts as functional.
For data set [14], the system named is THP-1. Briefly: Anti-inflammatory activity in Homo sapiens (human) THP1 cells assessed as inhibition of LPS-induced IL6 production at 10 uM incubated for 30 min prior to LPS-challenge measured after 24 hr by ELISA. It counts as functional.
Data set [15] is described as follows: Cytotoxicity against Homo sapiens (human) […] cells at 10 uM. It counts as cell-based.
For data set [16], the system named is HCT-116. The data set is described as follows: Cytotoxicity against Homo sapiens (human) HCT116 cells at 10 uM after 48 hr by propidium iodide-based fluorometric assay. It counts as functional. The note with it: HCT-116, 48 h, read-out: GI.
Data set [17] deals with Radical scavenging activity. Briefly: Antioxidant activity assessed as DPPH radical scavenging activity at 1 uM after 20 min by spectrophotometric analysis. It counts as functional.
Data set [18] has as its target T3, Beta-glucuronidase (Homo sapiens) (UniProt P08236).
T3 sequence (whole entry): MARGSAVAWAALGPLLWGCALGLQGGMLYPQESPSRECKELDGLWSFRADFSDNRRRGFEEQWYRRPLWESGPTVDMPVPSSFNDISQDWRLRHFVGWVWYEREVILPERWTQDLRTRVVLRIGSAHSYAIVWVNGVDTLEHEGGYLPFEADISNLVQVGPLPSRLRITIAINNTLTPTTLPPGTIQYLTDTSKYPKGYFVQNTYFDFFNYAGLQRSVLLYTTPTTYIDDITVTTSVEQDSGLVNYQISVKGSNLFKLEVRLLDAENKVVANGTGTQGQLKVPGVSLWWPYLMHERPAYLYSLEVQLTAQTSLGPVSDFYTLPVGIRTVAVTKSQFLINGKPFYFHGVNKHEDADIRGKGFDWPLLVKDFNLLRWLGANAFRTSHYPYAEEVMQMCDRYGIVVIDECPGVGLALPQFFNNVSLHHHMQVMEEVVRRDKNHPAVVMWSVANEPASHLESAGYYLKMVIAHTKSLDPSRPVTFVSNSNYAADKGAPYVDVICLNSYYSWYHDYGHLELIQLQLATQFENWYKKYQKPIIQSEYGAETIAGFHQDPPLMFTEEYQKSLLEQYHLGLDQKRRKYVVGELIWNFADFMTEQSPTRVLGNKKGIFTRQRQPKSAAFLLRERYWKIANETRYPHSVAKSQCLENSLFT
Briefly: Inhibition of beta-glucuronidase (unknown origin) using p-nitrophenyl-beta-D-glucopyranosiduronic acid as substrate at 1 uM after 30 min by spectrophotometric analysis.

Data set [19] in a line: Antioxidant activity assessed as hydroxyl radical scavenging activity at 1 uM by spectrophotometric analysis. It counts as functional.
Data set [20] in a line: Antioxidant activity assessed as reduction of potassium ferricynide at 1 mM after 10 min by spectrophotometric analysis. It counts as functional. Also on record: scale not given: the % may be the effect or the level left.
The nature of data set [21]: Antioxidant activity assessed as hydroxyl radical scavenging activity at 1 mM by spectrophotometric analysis. It counts as functional.

We go through eight molecules from ChEMBL document CHEMBL3046347, “Synthesis and biological evaluation of novel curcumin analogues as anti-inflammatory, anti-cancer and anti-oxidant agents” (Med Chem Res, 2012).

Each structure is given as a SMILES string.

As to `Nc1ccn([C@@H]2O[C@H](CO)[C@@H](O)C2(F)F)c(=O)n1` [GEMCITABINE], the inhibition of growth at 0.5 µM amounted to 87% with Calu-1 [1]; 79% in data set [2]; 86% in the data set on HCT-116 [3]; 78% with PANC-1 [4]; 84% in the data set on ACHN [5].
For the molecule `COc1cc(OC)c(/C=C/C(=O)c2cccc(NC(=O)c3ccc(C(C)(C)C)cc3)c2)c(OC)c1Br`, the inhibition of growth at 10 µM in the data set with ACHN [6] amounted to 35%; in the data set with Calu-1 [7], 32%; in [8], 51%; with PANC-1 [11] it was 37%; with HCT-116 [16] it was 10%. Besides, the inhibition came to 64.6% in [9], 69.6% against Trypsin (Homo sapiens), 85.8% in data set [10] and 82.5% in data set [18]. Further, the Activity in [12] came out at 36.8%; in data set [15], 56%; in data set [17], 43.6%; in [19], 27.3%. Besides, the inhibition at 10 µM was 83% in the data set with THP-1 [13] and 96% in the data set on THP-1 [14].
With `O=C1O[C@H]([C@@H](O)CO)C(O)=C1O`, the Activity in [20] amounted to 78.9%; in data set [21], 45.9%.
Take `COc1cc(OC)c(/C=C/C(=O)c2cccc(NC(=O)c3cccs3)c2)c(OC)c1Br`: the inhibition of growth at 10 µM in the data set with ACHN [6] turned out to be 82%; in the data set on Calu-1 [7], 85%; in [8], 72%; in the data set with PANC-1 [11], 89%; with HCT-116 [16], 98%. In addition, the inhibition in data set [9] came to 27.8%; against Trypsin (Homo sapiens) it was 41.4%; in [10], 55.4%; in data set [18], 44.7%. Also, the Activity in [12] worked out at 32.7%; in data set [15] it was 53%; in data set [17] it was 35.3%; in data set [19], 49.3%. The inhibition at 10 µM in the data set on THP-1 [13] is 80%; with THP-1 [14], 96%.
For the molecule `COc1cc(OC)c(/C=C/C(=O)c2cccc(NC(=O)c3ccccc3F)c2)c(OC)c1Br`, the inhibition of growth at 10 µM with ACHN [6] amounted to 66%; with Calu-1 [7] it was 67%; in data set [8] it was 52%; in the data set on PANC-1 [11], 68%; in the data set on HCT-116 [16] it was 66%. Moreover, the inhibition in data set [9] is 44.8%; against Trypsin (Homo sapiens) it was 64.8%; in data set [10] it was 79.3%; in [18], 74.2%. The Activity in data set [12] turned out to be 40.5%; in data set [15], 56%; in data set [17], 42.9%; in data set [19] it was 43.2%. Also, the results for the inhibition at 10 µM in the data set on THP-1 [13] and in the data set on THP-1 [14] were 84% and 96%, respectively.
Turning to `COc1cc(OC)c(/C=C/C(=O)c2cccc(NC(=O)c3ccccc3C)c2)c(OC)c1Br`, the inhibition of growth at 10 µM in the data set with ACHN [6] worked out at 15%; in the data set with Calu-1 [7], 0%; in [8], 32%; in the data set with PANC-1 [11], 3%; with HCT-116 [16], 21%. Moreover, the inhibition in data set [9] amounted to 31.5%; against Trypsin (Homo sapiens), 35.5%; in [10], 43.7%; in data set [18], 29.7%. In addition, the Activity in data set [12] stood at 22.3%; in data set [15], 54%; in data set [17], 31.1%; in data set [19], 34.6%. The results for the inhibition at 10 µM in the data set on THP-1 [13] and with THP-1 [14] were 72% and 95%, respectively.
For the molecule `COc1cc(OC)c(/C=C/C(=O)c2cccc(NC(=O)c3cccc(C)c3)c2)c(OC)c1Br`, the inhibition of growth at 10 µM with ACHN [6] worked out at 28%; with Calu-1 [7] it was 22%; in [8], 32%; in the data set on PANC-1 [11] it was 23%; with HCT-116 [16] it was 30%. For the same molecule, the inhibition in data set [9] was found to be 24.2%; on Trypsin (Homo sapiens) it was 51.6%; in data set [10], 48.2%; in data set [18] it was 66.9%. Besides, the Activity in [12] came to 29.2%; in data set [15], 56%; in [17], 36.7%; in data set [19] it was 38.3%. Further, the inhibition at 10 µM in the data set with THP-1 [13] was 87%; with THP-1 [14], 97%.
On to `COc1cc(OC)c(/C=C/C(=O)c2cccc(NC(=O)c3ccccc3C(F)(F)F)c2)c(OC)c1Br`, for which the inhibition of growth at 10 µM was found to be 6% in the data set on ACHN [6]; 0% in the data set with Calu-1 [7]; 11% in [8]; 3% in the data set on PANC-1 [11]; 6% in the data set with HCT-116 [16]. The inhibition amounted to 39.9% in data set [9], 68.4% against Trypsin (Homo sapiens), 87.9% in [10] and 76.9% in data set [18]. The Activity in data set [12] was found to be 42.9%; in [15], 62%; in data set [17] it was 44.6%; in data set [19] it was 35.9%. Moreover, the inhibition at 10 µM came to 85% in the data set on THP-1 [13] and 95% with THP-1 [14].
